Test results as given in ChEMBL document CHEMBL3763136, “Synthesis and neuroprotective activity of dictyoquinazol A and analogues” (Bioorg Med Chem, 2016).
Active and inactive are the calls of the source. The rule behind the calls is not given here.

How the values were obtained:
SH-SY5Y [1] = assay: Neuroprotective activity against L-glutamate-induced excitotoxicity in human SH-SY5Y cells assessed as increase in cell viability after 20 hrs by MTT assay; assay type: functional, cell-based
SH-SY5Y [2] = assay: Neuroprotective activity against H2O2-induced oxidative stress in human SH-SY5Y cells assessed as increase in cell viability after 20 hrs by MTT assay; assay type: functional, cell-based
SH-SY5Y [3] = assay: Neuroprotective activity against staurosporine-induced apoptosis in human SH-SY5Y cells assessed as increase in cell viability after 20 hrs by MTT assay; assay type: functional, cell-based
SH-SY5Y [4] = assay: Cytotoxicity against human SH-SY5Y cells assessed as cell viability at 0.3 to 3 uM after 24 hrs by MTT assay; assay type: cell-based
SH-SY5Y [5] = assay: Neuroprotective activity against L-glutamate-induced excitotoxicity in human SH-SY5Y cells assessed as increase in cell viability at 0.6 uM after 20 hrs by MTT assay; assay type: functional
SH-SY5Y [6] = assay: Cytotoxicity against human SH-SY5Y cells assessed as cell viability up to 3 uM after 24 hrs by MTT assay; assay type: cell-based
SH-SY5Y [7] = assay: Cytotoxicity against human SH-SY5Y cells assessed as cell viability above 10 uM after 24 hrs by MTT assay; assay type: cell-based
SH-SY5Y [8] = assay: Neuroprotective activity against L-glutamate-induced excitotoxicity in human SH-SY5Y cells assessed as increase in cell viability at 0.3 uM after 20 hrs by MTT assay; assay type: functional
SH-SY5Y [9] = assay: Neuroprotective activity against staurosporine-induced apoptosis in human SH-SY5Y cells assessed as increase in cell viability at 0.3 uM after 20 hrs by MTT assay; assay type: functional
SH-SY5Y [10] = assay: Neuroprotective activity against H2O2-induced oxidative stress in human SH-SY5Y cells assessed as increase in cell viability at 0.6 to 1.2 uM after 20 hrs by MTT assay; assay type: functional

Row | SMILES | Activity (SH-SY5Y [1]) | Activity (SH-SY5Y [2]) | Activity (SH-SY5Y [3]) | Activity (SH-SY5Y [4]) | Activity (SH-SY5Y [5]) | Activity (SH-SY5Y [6]) | Activity (SH-SY5Y [7]) | %max (SH-SY5Y [8]) | Activity (SH-SY5Y [9]) | %max (SH-SY5Y [10])
1 | COc1ccc(-n2c(=S)[nH]c3ccc(OC)cc3c2=O)c(CO)c1 | Active | Active | inactive | Non-toxic |  |  |  |  |  | 
2 | O=c1c2ccccc2ncn1-c1ccccc1CO |  | inactive | Active |  | 35% | Non-toxic | Toxic |  |  | 
3 | COc1ccc(-n2cnc3ccc(OC)cc3c2=O)cc1 | Active | Active | Active | Non-toxic |  |  |  |  |  | 
4 | COC(=O)c1cc(OC)ccc1-n1cnc2ccc(OC)cc2c1=O | Active | Active | Active | Non-toxic |  |  |  |  |  | 
5 | COc1ccc(-n2c(=O)[nH]c3ccc(OC)cc3c2=O)c(CO)c1 | Active | Active | Active | Non-toxic |  |  |  |  |  | 
6 | COc1ccc(-n2cnc3ccc(OC)cc3c2=O)c(CO)c1 [DICTYOQUINAZOLE A] |  |  |  |  |  | Non-toxic | Toxic | 10% | 41% | 22%
7 | COc1ccc(-n2cnc3ccc(OC)cc3c2=O)c(COC=O)c1 |  |  |  |  |  | Non-toxic | Toxic |  |  | 
8 | COc1ccc(-n2cnc3ccc(OC)cc3c2=O)c(CF)c1 | Active | inactive | Active |  |  | Non-toxic | Toxic |  |  | 
